Test [1] deals with T1, 3-oxo-5-alpha-steroid 4-dehydrogenase 1 (Homo sapiens, UniProt P18405).
T1 sequence (P18405 whole entry): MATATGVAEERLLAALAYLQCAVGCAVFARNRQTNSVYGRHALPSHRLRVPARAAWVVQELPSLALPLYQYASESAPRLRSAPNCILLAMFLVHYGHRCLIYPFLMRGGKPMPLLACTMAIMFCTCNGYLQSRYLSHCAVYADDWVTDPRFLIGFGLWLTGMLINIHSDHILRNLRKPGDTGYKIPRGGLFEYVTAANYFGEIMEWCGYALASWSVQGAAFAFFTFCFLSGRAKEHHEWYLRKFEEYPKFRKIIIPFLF
As to the kind of experiment: Inhibitory activity against Steroid 5-alpha-reductase type 1 enzyme based on the conversion of [3H]T to [3H]-DHT in nuclear membrane preparations from human scalp. The test is classed as cell membranes.

In test [2] the target is T2, 3-oxo-5-alpha-steroid 4-dehydrogenase 2 (Homo sapiens, UniProt P31213).
T2 sequence (P31213 whole entry): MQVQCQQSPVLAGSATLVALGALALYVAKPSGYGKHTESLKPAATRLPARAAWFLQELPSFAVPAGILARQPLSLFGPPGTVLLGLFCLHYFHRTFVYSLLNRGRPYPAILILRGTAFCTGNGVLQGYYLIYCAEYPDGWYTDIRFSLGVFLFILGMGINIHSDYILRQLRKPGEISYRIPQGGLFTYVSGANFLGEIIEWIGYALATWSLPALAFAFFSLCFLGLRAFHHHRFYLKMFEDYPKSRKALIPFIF
As to the kind of experiment: Inhibitory activity against Steroid 5-alpha-reductase type 2 as [3H]T to [3H]-DHT conversion human prostate nuclear membrane. In kind it is tissue-based, Prostate gland.

Test [3] addresses T1, 3-oxo-5-alpha-steroid 4-dehydrogenase 1. The test is described as follows: Inhibitory activity against Steroid 5-alpha-reductase type I enzyme based on the conversion of [3H]-T to [3H]DHT in nuclear membrane preparations from human scalp. In kind it is cell membranes.

By IC50 is commonly meant the concentration that inhibits the measured activity by half. The low end stands for greater potency, the high end for weaker potency.

SMILES strings stand for the structures.

On to `CN1C(=O)CC[C@]2(C)c3ccc(/C=C/c4ccc5ccccc5n4)cc3CC[C@@H]12`, for which the IC50 was 32 nM in test [1] and 550 nM in test [2].

`CN1C(=O)CC[C@]2(C)c3ccc(CC(N)=O)cc3CC[C@@H]12`: the IC50 in test [1] and in test [2] was above 10000 nM in each case.

Regarding `CN1C(=O)CC[C@]2(C)c3ccc(CC(=O)NC(C)(C)C)cc3CC[C@@H]12`, the IC50 in test [1] and in test [2] was above 10000 nM in each case.

Take `CN1C(=O)CC[C@]2(C)c3ccc(-c4ccco4)cc3CC[C@@H]12`: the figures for the IC50 in test [1] and in test [2] were 59 nM and above 10000 nM, respectively.

Turning to `CN1C(=O)CC[C@]2(C)c3ccc(/C=C/c4ccccc4)cc3CC[C@@H]12`, the IC50 is 23 nM in test [3] and 180 nM in test [2].

Regarding `CN1C(=O)CC[C@]2(C)c3ccc(CC(=O)Nc4ccccc4)cc3CC[C@@H]12`, the IC50 in test [1] is above 10000 nM; in test [2], 520 nM.

For `CN1C(=O)CC[C@]2(C)c3ccc(/C=C\c4ccccc4)cc3CC[C@@H]12`, the IC50 in test [3] was determined as 6 nM; in test [2], 1400 nM.

Take `CN1C(=O)CC[C@]2(C)c3ccc(CC(=O)O)cc3CC[C@@H]12`: the IC50 in test [2] is 870 nM.

`CCN(CC)C(=O)Cc1ccc2c(c1)CC[C@H]1N(C)C(=O)CC[C@]21C`: the IC50 in test [1] and in test [2] was above 10000 nM each time.

Regarding `CN1C(=O)CC[C@]2(C)c3ccc(/C=C/c4cnc5ccccc5c4)cc3CC[C@@H]12`, the half-inhibitory concentration (IC50) turned out to be 3.4 nM in test [1] and 320 nM in test [2].

Regarding `CN1C(=O)CC[C@]2(C)c3ccc(/C=C/c4cncc5ccccc45)cc3CC[C@@H]12`, the results for the IC50 in test [1] and in test [2] were 63 nM and 1340 nM, respectively.

`CN1C(=O)CC[C@]2(C)c3ccc(C#Cc4ccccc4)cc3CC[C@@H]12`: the results for the IC50 in test [3] and in test [2] were 21 nM and 52 nM, respectively.

With `CN1C(=O)CC[C@]2(C)c3ccc(-c4cccs4)cc3CC[C@@H]12`, the IC50 in test [1] and in test [2] was above 10000 nM throughout.
